# Data taken from patent US20180346446A1, “IRE1 SMALL MOLECULE INHIBITORS” (QUENTIS THERAPEUTICS, INC., priority 2017, published 2018).
# Structures can show the parent of a compound that is named as a salt.
# Experiments:
# 293T cells = experiment: Growth assay (cytotoxicity); format: cell-based; settings: 2 day incubation
# Description: A growth assay was performed to evaluate the compounds disclosed herein for cytotoxicity. Briefly, 5,000,000 293T cells were resuspended in 18 mL of cDMEM for a final concentration of 277,777 cells/mL. […] In a separate 96 well dilution plate, 199 uL cDMEM and 1 uL of DMSO or any one of the compounds disclosed herein (shown as Test Compound 1, 2, 3, 4, 5, or 6 below) were added to wells A4, A8, C4, C8, E4, E8, G4, and G8. 133.3 uL cDMEM was added to wells 1, 2, 3, 5, 6, and 7 in rows A, C, E and G of the dilution plate. Compounds were serially diluted leftwards in threefold dilutions (66.7 uL into 133.3 uL cDMEM). 20 uL of each dilution was transferred in duplicate (duplicates in vertical paired wells) to the cells plated in the 96-well plate shown in Table 5, to the total concentrations shown below. 200 uL cDMEM was added to media wells (wells G5-H8). The plate was then placed in a humidified chamber for a 2 day incubation, and then photographed (media was more yellow in wells with potent cell growth). Absorbance was then measured at about […] (lower for more acidic media) and about […] (higher for more acidic media).
# IRE1a [1] = target: T1, IRE1a (Homo sapiens, UniProt O75460); experiment: In vitro FRET assay (XBP1 RNA probe cleavage by IRE1a); format: biochemical; design: purchased SignalChem; settings: 2 nM IRE1a protein
# hERG channel = target: T2, hERG channel (Homo sapiens, UniProt Q12809); experiment: hERG potassium ion channel automated planar clamp (QPatch); format: cell-based; settings: hERG channel expressed in a stable CHO cell line, read-out: hERG channel blockade Mean IC50
# T2 construct: expressed in transfected cells
# Description: Blockade of the cardiac ion channel coded by the hERG gene can lead to cardiac arrhythmia. […] To determine the viability of the compounds disclosed herein as pharmacological agents that would not affect the hERG channel blockade, a standard automated planar clamp method was employed to determine the IC50 for various test compounds on their inhibition of the channel. An electrophysiological assay was prepared to measure the electric current passing through the hERG channel expressed in a stable CHO cell line by applying the planar clamp method. This assay was performed using the automated QPatch platform (Sophion, Denmark) which allows fast and accurate electrophysiological characterization of the hERG ion channel and the determination of IC50 values for the test compounds, as shown in Table 9.
# IRE1a [2] = target: T1, IRE1a; experiment: IRE1a Endoribonuclease Nanoluciferase Assay (XBP1 luciferase reporter in 293T cells); format: cell-based; settings: 293T cells transfected with XBP1 luciferase reporter, ER stressors +/- inhibitors
# Outline: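 293T cells were transfected with a PGK-Luc2-P2A-XBP1u-nanoluciferase-PEST reporter and plated in 96-well format. A day later they were treated with ER stressors with or without inhibitors. Lysates were read for luminescence with OneGlo, then again after Stop and Glo.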
# T1 sequence (O75460 19-977): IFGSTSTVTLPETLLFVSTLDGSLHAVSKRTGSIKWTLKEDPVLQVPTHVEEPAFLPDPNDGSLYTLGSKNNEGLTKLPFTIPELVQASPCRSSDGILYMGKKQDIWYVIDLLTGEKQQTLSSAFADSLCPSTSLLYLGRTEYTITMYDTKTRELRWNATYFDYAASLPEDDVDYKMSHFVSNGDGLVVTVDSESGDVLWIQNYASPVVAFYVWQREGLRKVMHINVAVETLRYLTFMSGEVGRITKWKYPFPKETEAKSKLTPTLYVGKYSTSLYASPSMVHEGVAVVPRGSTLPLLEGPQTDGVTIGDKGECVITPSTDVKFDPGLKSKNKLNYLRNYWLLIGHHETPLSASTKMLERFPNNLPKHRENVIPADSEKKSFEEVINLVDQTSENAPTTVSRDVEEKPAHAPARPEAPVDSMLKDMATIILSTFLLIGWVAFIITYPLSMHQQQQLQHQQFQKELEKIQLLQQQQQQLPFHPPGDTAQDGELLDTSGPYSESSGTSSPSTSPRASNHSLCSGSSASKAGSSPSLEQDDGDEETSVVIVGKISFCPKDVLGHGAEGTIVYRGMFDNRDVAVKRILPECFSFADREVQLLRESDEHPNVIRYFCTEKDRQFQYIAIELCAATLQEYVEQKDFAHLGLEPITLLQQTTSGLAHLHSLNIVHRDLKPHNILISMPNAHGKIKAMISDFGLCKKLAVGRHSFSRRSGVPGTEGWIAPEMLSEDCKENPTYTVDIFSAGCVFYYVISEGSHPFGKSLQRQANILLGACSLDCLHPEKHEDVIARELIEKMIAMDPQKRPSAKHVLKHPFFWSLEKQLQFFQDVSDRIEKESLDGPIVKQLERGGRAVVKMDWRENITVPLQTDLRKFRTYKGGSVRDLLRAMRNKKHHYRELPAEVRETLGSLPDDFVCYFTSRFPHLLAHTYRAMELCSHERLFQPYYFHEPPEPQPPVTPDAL
# T2 sequence (Q12809 whole entry): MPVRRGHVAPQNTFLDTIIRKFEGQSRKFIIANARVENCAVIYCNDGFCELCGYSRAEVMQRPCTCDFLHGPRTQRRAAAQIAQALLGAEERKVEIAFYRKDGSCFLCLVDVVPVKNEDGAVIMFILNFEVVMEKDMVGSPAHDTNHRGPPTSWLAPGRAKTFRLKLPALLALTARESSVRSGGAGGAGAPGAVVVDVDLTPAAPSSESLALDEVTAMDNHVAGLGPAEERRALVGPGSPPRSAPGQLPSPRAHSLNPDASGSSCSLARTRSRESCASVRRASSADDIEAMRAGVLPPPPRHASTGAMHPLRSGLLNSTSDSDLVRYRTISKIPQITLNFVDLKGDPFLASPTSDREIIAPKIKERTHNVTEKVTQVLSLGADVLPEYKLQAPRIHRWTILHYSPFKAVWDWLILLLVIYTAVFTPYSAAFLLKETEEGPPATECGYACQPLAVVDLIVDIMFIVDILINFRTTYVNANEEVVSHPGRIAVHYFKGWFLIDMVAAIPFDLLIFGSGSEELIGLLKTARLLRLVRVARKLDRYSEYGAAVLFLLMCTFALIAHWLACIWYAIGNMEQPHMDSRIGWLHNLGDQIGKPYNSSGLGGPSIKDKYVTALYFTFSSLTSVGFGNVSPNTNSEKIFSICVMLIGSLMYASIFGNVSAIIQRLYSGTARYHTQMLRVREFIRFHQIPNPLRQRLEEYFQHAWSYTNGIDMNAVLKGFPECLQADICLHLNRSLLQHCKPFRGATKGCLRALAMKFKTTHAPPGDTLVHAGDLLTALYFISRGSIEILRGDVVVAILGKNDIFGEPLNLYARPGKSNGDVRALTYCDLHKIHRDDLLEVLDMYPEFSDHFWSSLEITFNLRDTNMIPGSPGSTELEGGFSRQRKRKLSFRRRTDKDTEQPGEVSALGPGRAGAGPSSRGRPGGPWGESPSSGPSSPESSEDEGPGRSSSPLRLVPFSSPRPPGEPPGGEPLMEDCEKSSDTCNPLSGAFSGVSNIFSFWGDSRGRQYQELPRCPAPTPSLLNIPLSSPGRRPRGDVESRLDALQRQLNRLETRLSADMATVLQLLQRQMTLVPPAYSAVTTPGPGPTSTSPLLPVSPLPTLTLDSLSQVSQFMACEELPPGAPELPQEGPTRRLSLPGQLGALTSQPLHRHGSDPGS
Compound,% Growth at 0.5556 uM (293T cells),% Growth at 1.667 uM (293T cells),% Growth at 5 uM (293T cells),IC50 (IRE1a [1]),IC50 (hERG channel),EC50 (IRE1a [2]),% Growth at 0.185 uM (293T cells)
CCc1cc(-c2ccc(NS(=O)(=O)c3ccccc3Cl)c(F)c2)cc2cnc(N[C@H]3CC[C@H](N(C)C)CC3)nc12.O=CO [69; Formic Acid],D (D: >75% to ≤100%),C (C: >50% to ≤75%),C (C: >50% to ≤75%),≤ 5 nM,10000 to 50000 nM,≤ 5 nM,
CCc1cc(-c2ccc(NS(=O)(=O)c3ccccc3Cl)nc2C)cc2cnc(N[C@H]3CC[C@H](N)CC3)nc12.O=CO [16; Formic Acid],D (D: >75% to ≤100%),D (D: >75% to ≤100%),B (B: >25% to ≤50%),≤ 5 nM,10000 to 50000 nM,≤ 5 nM,D (D: >75% to ≤100%)
CCc1cc(-c2ccc(NS(=O)(=O)c3ccccc3Cl)cc2C)cc2cnc(N[C@H]3CC[C@H](N)CC3)nc12.O=CO [3; Formic Acid],D (D: >75% to ≤100%),C (C: >50% to ≤75%),A (A: ≤25%),≤ 5 nM,10000 to 50000 nM,5 to 50 nM,D (D: >75% to ≤100%)
CCc1cc(-c2ccc(NS(=O)(=O)c3ccccc3Cl)c(F)c2)cc2cnc(N[C@H]3CC[C@H](N)CC3)nc12.O=CO [24; Formic Acid],D (D: >75% to ≤100%),C (C: >50% to ≤75%),C (C: >50% to ≤75%),≤ 5 nM,1000 to 10000 nM,≤ 5 nM,D (D: >75% to ≤100%)
CCc1cc(-c2cnc(NS(=O)(=O)c3ccccc3Cl)nc2OC)cc2cnc(N[C@H]3CC[C@H](N)CC3)nc12.O=CO [46; Formic Acid],D (D: >75% to ≤100%),D (D: >75% to ≤100%),D (D: >75% to ≤100%),≤ 5 nM,,≤ 5 nM,D (D: >75% to ≤100%)
CCc1cc(-c2cnc(NS(=O)(=O)c3ccccc3Cl)nc2C)cc2cnc(N[C@H]3CC[C@H](N)CC3)nc12.O=CO [23; Formic Acid],C (C: >50% to ≤75%),C (C: >50% to ≤75%),D (D: >75% to ≤100%),≤ 5 nM,,≤ 5 nM,D (D: >75% to ≤100%)
CCc1cc(-c2cc(F)c(NS(=O)(=O)c3ccccc3Cl)cc2C)cc2cnc(N[C@H]3CC[C@H](N)CC3)nc12.O=CO [21; Formic Acid],D (D: >75% to ≤100%),D (D: >75% to ≤100%),B (B: >25% to ≤50%),≤ 5 nM,,5 to 50 nM,D (D: >75% to ≤100%)
CCc1cc(-c2nnc(NS(=O)(=O)c3ccccc3Cl)cc2OC)cc2cnc(N[C@H]3CC[C@H](N)CC3)nc12.O=CO [65; Formic Acid],D (D: >75% to ≤100%),D (D: >75% to ≤100%),C (C: >50% to ≤75%),≤ 5 nM,,5 to 50 nM,D (D: >75% to ≤100%)
CCc1cc(-c2nnc(NS(=O)(=O)c3ccccc3Cl)cc2C)cc2cnc(N[C@H]3CC[C@H](N)CC3)nc12.O=CO [67; Formic Acid],D (D: >75% to ≤100%),C (C: >50% to ≤75%),C (C: >50% to ≤75%),≤ 5 nM,,5 to 50 nM,D (D: >75% to ≤100%)
CCc1cc(-c2ccc(NS(=O)(=O)c3ccccc3Cl)nc2)cc2cnc(N[C@H]3CC[C@H](N)CC3)nc12.O=CO [27; Formic Acid],D (D: >75% to ≤100%),C (C: >50% to ≤75%),B (B: >25% to ≤50%),≤ 5 nM,,≤ 5 nM,D (D: >75% to ≤100%)
CCc1cc(-c2ccc(NS(=O)(=O)c3ccccc3Cl)c(C)c2C)cc2cnc(N[C@H]3CC[C@H](N)CC3)nc12.O=CO [22; Formic Acid],D (D: >75% to ≤100%),D (D: >75% to ≤100%),A (A: ≤25%),5 to 50 nM,,> 100 nM,D (D: >75% to ≤100%)
CCc1cc(-c2cnc(NS(=O)(=O)c3ccccc3Cl)c(F)c2)cc2cnc(N[C@H]3CC[C@H](N)CC3)nc12.O=CO [55; Formic Acid],D (D: >75% to ≤100%),D (D: >75% to ≤100%),D (D: >75% to ≤100%),≤ 5 nM,,≤ 5 nM,D (D: >75% to ≤100%)
CCc1cc(-c2cnc(NS(=O)(=O)c3ccccc3Cl)cn2)cc2cnc(N[C@H]3CC[C@H](N)CC3)nc12.O=CO [25; Formic Acid],D (D: >75% to ≤100%),D (D: >75% to ≤100%),D (D: >75% to ≤100%),≤ 5 nM,,≤ 5 nM,D (D: >75% to ≤100%)
CCc1cc(-c2ccc(NS(=O)(=O)c3ccccc3Cl)cc2OC)cc2cnc(N[C@H]3CC[C@H](N)CC3)nc12.O=CO [19; Formic Acid],D (D: >75% to ≤100%),C (C: >50% to ≤75%),A (A: ≤25%),≤ 5 nM,,≤ 5 nM,D (D: >75% to ≤100%)
CCc1cc(-c2ccc(NS(=O)(=O)c3ccccc3Cl)c(F)c2C)cc2cnc(N[C@H]3CC[C@H](N)CC3)nc12.O=CO [71; Formic Acid],D (D: >75% to ≤100%),C (C: >50% to ≤75%),B (B: >25% to ≤50%),≤ 5 nM,,≤ 5 nM,D (D: >75% to ≤100%)
CCc1cc(-c2ncc(NS(=O)(=O)c3ccccc3Cl)cn2)cc2cnc(N[C@H]3CC[C@H](N)CC3)nc12.O=CO [33; Formic Acid],D (D: >75% to ≤100%),D (D: >75% to ≤100%),C (C: >50% to ≤75%),≤ 5 nM,,≤ 5 nM,D (D: >75% to ≤100%)
CCc1cc(-c2ccc(NS(=O)(=O)c3ccccc3Cl)cc2F)cc2cnc(N[C@H]3CC[C@H](N)CC3)nc12.O=CO [35; Formic Acid],D (D: >75% to ≤100%),C (C: >50% to ≤75%),B (B: >25% to ≤50%),≤ 5 nM,,≤ 5 nM,D (D: >75% to ≤100%)
CCc1cc(-c2ccc(NS(=O)(=O)c3ccccc3Cl)cn2)cc2cnc(N[C@H]3CC[C@H](N)CC3)nc12.O=CO [28; Formic Acid],D (D: >75% to ≤100%),C (C: >50% to ≤75%),B (B: >25% to ≤50%),≤ 5 nM,,≤ 5 nM,D (D: >75% to ≤100%)
CCc1cc(-c2ccc(NS(=O)(=O)c3ccccc3Cl)nn2)cc2cnc(N[C@H]3CC[C@H](N)CC3)nc12.O=CO [32; Formic Acid],D (D: >75% to ≤100%),C (C: >50% to ≤75%),B (B: >25% to ≤50%),≤ 5 nM,,≤ 5 nM,D (D: >75% to ≤100%)
CCc1cc(-c2ccc(NS(=O)(=O)c3ccccc3Cl)nc2OC)cc2cnc(N[C@H]3CC[C@H](N)CC3)nc12 [37; HCl ^],D (D: >75% to ≤100%),C (C: >50% to ≤75%),B (B: >25% to ≤50%),≤ 5 nM,10000 to 50000 nM,≤ 5 nM,
